The values that follow come from patent publication US8426406B2, “Glucocorticoid receptor agonist comprising 2,2,4-trimethyl-6-phenyl-1,2-dihydroquinoline derivatives having substituted oxy group” (Santen Pharmaceutical Co., Ltd., priority 2008, dated 2013).

In test [1] the test system is IL-6 production induced by lipopolysaccharide (LPS) in human corneal epithelial cells. Briefly: Evaluation test for GR agonist activity: inhibition of LPS-induced IL-6 production in human corneal epithelial cells (HCE-T). The class given is cell-based. The note with it: Corneal epithelial cell, 10 μL of 100 μM test compound solution per well, 4 hours incubation, efficacy relative to DEX. The essentials: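 SV40-immortalized HCE-T cells were treated with test compound (100 μM solution, stock before dilution into well) plus LPS (1 μg/mL solution, likewise pre-dilution) for 4 hours in 10% FBS-DMEM/F12. IL-6 in supernatants was measured by HTRF. Inhibition was calculated relative to LPS-plus-DMSO and no-LPS controls, and efficacy was expressed as % of DEX inhibition.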

The test system of test [2] is allergic conjunctivitis model in mice. Description: Inhibitory effect on the vascular hyper-permeability in allergic conjunctivitis model. Format: in vivo. Conditions: Mus musculus, 1% (W/V) test compound suspension instilled to the right eye three times before ovalbumin instillation, dye leakage vs vehicle, mean of 5-6 eyes, read-out: The inhibition ratio of the vascular hyper-permeability (%). The method, then:
In order to evaluate anti-allergic effect, inhibitory effect on the vascular hyper-permeability in allergic conjunctivitis model in mice was examined. This effect was calculated based on dye leakages of vehicle-treated group (control group) and test compound-treated group.
By adding 0.5% polysorbate 80/saline to the test compound, a 1% (W/V) test compound suspension was prepared.
1) Ovalbumin absorbed on aluminum hydroxide gel was dissolved in saline (20 μg ovalbumin/mL), and male BALE/c mice, 6 weeks old, were actively sensitized to the antigen by intraperitoneal injections of 500 μL of it.
2) On the 6th day from sensitization, sensitized mice were boosted by additional intraperitoneal injections of 500 μL ovalbumin absorbed on aluminum hydroxide gel (20 μg ovalbumin/mL).
3) On the 11th day, 12th day, 13th day, 14th day and 15th day from the first sensitization, allergic conjunctivitis were induced by installations to the right eyes of the mice of […] of 50% glycerol solution containing 15% (W/V) ovalbumin.
4) […] of test compound suspension per eye was instilled to the right eye of the above mice 15 min, 1 hr and 3 hrs before ovalbumin instillation (three times) on the 15th day from sensitization. In vehicle-treated group (control group), the mice were instilled with 0.5% polysorbate 80/saline in substitution for test compound suspension.
5) Just before ovalbumin instillation on the 15th day from sensitization, all animals received a tail intravenous injection of 0.1% Evans blue dye. The right periocular tissues of the mice, which were the leaked parts of dye, were collected 30 min after ovalbumin instillation. The dye was extracted from the tissues with the dye extraction liquid. Then the absorbance of the dye extract was measured. The dye leakage was calculated from the absorbance value, and the inhibition ratio of the vascular hyper-permeability of test compound-treated group was calculated according to calculation equation 1. The inhibition ratio of the vascular hyper-permeability of test compound-treated group(%)=(1−Ax/Ao)×100 (Calculation Equation 1) Ao: Dye leakage in vehicle-treated group (control group) Ax: Dye leakage in test compound-treated group (Test Results and Discussion)

Each structure is given as a SMILES string.

On to `COc1cc(OC(=O)c2cccnc2)ccc1-c1ccc2c(c1COc1cc([N+](=O)[O-])ccc1C)C(C)=CC(C)(C)N2` [Compound 1-72, 6-[2-Methoxy-4-(pyridin-3-ylcarbonyloxy)phenyl]-5-(2-methyl-5-nitrophenoxymethyl)-2,2,4-trimethyl-1,2-dihydroquinoline], for which the Emax (usually the size of the effect at its maximum, as opposed to the concentration needed) in test [1] was 82%. For the same compound, the inhibition in vivo at 10000 µg/mL in test [2] was 21%.
`COc1cc(OC(=O)c2ccco2)ccc1-c1ccc2c(c1COc1cc(F)ccc1C)C(C)=CC(C)(C)N2` [Compound 1-13, 5-(5-Fluoro-2-methylphenoxymethyl)-6-[4-(furan-2-ylcarbonyloxy)-2-methoxyphenyl]-2,2,4-trimethyl-1,2-dihydroquinoline] gave a maximal response (Emax) in test [1] of 94%. For the same compound, the inhibition in vivo at 10000 µg/mL in test [2] was determined as 24%.
The compound `CCCS(=O)(=O)Oc1ccc(-c2ccc3c(c2CNc2ccccc2OC)C(C)=CC(C)(C)N3)c(OC)c1` [Compound 4-18, 5-(2-Methoxyphenylaminomethyl)-6-(2-methoxy-4-propylsulfonyloxyphenyl)-2,2,4-trimethyl-1,2-dihydroquinoline] came in with an Emax in test [1] of 89%. Further, the inhibition in vivo at 10000 µg/mL in test [2] came to 21%.
Taken in the same sequence, the figures for `COc1cc(OC(=O)c2ccsc2)ccc1-c1ccc2c(c1COc1cc(F)ccc1C)C(C)=CC(C)(C)N2` [Compound 1-12, 5-(5-Fluoro-2-methylphenoxymethyl)-6-[2-methoxy-4-(thiophen-3-ylcarbonyloxy)phenyl]-2,2,4-trimethyl-1,2-dihydroquinoline] were 85% and 17%.
